Legend:
[1] = molecular target: T1, Phosphatidylinositol 4-phosphate 3-kinase C2 domain-containing subunit beta (Homo sapiens, UniProt O00750); assay: Inhibition of PI3KC2beta (unknown origin) expressed in HEK293 cells using phosphatidylinositol and gamma-32P-ATP incubated for 20 mins by TLC assay or high-throughput membrane capture assay; type: cell-based
[2] = molecular target: T2, Phosphatidylinositol 3-kinase catalytic subunit type 3 (Homo sapiens, UniProt Q8NEB9); assay: Inhibition of full length human recombinant VPS34 (unknown origin) using phosphatidylinositol and gamma-32P-ATP incubated for 20 mins by TLC assay or high-throughput membrane capture assay
[3] = Inhibition of class 1 PI3K (unknown origin); parameters: species or system Homo sapiens
[4] = Inhibition of class 4 PI3K (unknown origin); parameters: species or system Homo sapiens
[5] = molecular target: T3, Phosphatidylinositol 4-phosphate 3-kinase C2 domain-containing subunit alpha (Homo sapiens, UniProt O00443); assay: Inhibition of PI3KC2alpha (unknown origin)
[6] = molecular target: T1, Phosphatidylinositol 4-phosphate 3-kinase C2 domain-containing subunit beta; assay: Inhibition of PI3KC2beta (unknown origin)
[7] = molecular target: T4, Phosphatidylinositol 3-kinase C2 domain-containing subunit gamma (Homo sapiens, UniProt O75747); assay: Inhibition of PI3KC2gamma (unknown origin)
T4 sequence (O75747 whole entry): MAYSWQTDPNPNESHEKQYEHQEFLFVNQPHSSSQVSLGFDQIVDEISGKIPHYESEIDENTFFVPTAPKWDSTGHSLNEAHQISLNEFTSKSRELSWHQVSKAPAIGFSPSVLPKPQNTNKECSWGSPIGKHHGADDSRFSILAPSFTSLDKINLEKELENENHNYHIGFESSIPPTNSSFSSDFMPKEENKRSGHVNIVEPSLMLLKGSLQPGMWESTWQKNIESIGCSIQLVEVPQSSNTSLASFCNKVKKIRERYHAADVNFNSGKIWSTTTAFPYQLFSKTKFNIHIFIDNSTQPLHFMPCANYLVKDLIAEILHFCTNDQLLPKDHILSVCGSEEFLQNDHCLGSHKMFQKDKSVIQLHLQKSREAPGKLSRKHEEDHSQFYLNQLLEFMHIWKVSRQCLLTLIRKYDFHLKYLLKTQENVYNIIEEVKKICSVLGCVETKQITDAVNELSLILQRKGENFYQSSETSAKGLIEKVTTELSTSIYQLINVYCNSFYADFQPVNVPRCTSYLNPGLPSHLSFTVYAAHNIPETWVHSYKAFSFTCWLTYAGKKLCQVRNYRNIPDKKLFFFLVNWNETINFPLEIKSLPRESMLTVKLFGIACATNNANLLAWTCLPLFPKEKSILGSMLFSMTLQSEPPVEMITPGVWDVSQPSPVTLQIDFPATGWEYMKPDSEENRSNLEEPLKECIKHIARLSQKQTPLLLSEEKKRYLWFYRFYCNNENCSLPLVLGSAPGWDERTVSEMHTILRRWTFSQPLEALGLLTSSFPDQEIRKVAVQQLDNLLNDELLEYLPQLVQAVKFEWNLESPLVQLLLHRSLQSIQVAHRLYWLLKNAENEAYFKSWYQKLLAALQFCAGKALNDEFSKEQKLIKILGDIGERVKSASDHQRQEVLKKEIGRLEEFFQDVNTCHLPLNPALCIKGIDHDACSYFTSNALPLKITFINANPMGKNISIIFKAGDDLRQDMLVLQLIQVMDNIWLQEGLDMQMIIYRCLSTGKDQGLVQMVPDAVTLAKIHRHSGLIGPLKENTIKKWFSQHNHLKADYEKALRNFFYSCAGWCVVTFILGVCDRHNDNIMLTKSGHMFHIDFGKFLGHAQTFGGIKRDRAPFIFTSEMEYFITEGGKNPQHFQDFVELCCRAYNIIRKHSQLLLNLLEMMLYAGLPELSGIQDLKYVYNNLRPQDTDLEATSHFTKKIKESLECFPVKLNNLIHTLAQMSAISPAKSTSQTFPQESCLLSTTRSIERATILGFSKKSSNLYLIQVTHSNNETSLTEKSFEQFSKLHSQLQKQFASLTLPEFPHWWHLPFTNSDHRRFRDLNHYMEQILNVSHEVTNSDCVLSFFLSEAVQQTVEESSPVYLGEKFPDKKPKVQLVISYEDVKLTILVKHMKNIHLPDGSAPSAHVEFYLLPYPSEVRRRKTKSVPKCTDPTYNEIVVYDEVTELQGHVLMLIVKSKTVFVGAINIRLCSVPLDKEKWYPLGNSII

[8] = molecular target: Phosphatidylinositol 4,5-bisphosphate 3-kinase catalytic subunit gamma isoform (Homo sapiens, UniProt P48736); assay: Inhibition of PI3Kgamma (unknown origin)
[9] = molecular target: T3, Phosphatidylinositol 4-phosphate 3-kinase C2 domain-containing subunit alpha; assay: Inhibition of PI3KC2alpha (unknown origin) expressed in HEK293 cells using phosphatidylinositol and gamma-32P-ATP incubated for 20 mins by TLC assay or high-throughput membrane capture assay; type: cell-based
[10] = molecular target: T5, DNA-dependent protein kinase catalytic subunit (Homo sapiens, UniProt P78527); assay: Inhibition of DNA-PK (unknown origin)
[11] = molecular target: T3, Phosphatidylinositol 4-phosphate 3-kinase C2 domain-containing subunit alpha; assay: Inhibition of human recombinant PI3KC2alpha using substrate PI incubated for 1 hr by Adapta kinase assay
[12] = molecular target: T1, Phosphatidylinositol 4-phosphate 3-kinase C2 domain-containing subunit beta; assay: Inhibition of human recombinant PI3KC2beta using substrate PI incubated for 1 hr by Adapta kinase assay
[13] = molecular target: T2, Phosphatidylinositol 3-kinase catalytic subunit type 3; assay: Inhibition of human recombinant Vps34 using substrate PI incubated for 1 hr by Adapta kinase assay
[14] = molecular target: T2, Phosphatidylinositol 3-kinase catalytic subunit type 3; assay: Inhibition of N-terminal tagged full-length human VPS34 by luciferase-luciferin-coupled chemiluminescence assay
[15] = molecular target: T5, DNA-dependent protein kinase catalytic subunit; assay: Inhibition of human DNA-PK by luciferase-luciferin-coupled chemiluminescence assay

T3 sequence (O00443 whole entry, the tested form may be a part): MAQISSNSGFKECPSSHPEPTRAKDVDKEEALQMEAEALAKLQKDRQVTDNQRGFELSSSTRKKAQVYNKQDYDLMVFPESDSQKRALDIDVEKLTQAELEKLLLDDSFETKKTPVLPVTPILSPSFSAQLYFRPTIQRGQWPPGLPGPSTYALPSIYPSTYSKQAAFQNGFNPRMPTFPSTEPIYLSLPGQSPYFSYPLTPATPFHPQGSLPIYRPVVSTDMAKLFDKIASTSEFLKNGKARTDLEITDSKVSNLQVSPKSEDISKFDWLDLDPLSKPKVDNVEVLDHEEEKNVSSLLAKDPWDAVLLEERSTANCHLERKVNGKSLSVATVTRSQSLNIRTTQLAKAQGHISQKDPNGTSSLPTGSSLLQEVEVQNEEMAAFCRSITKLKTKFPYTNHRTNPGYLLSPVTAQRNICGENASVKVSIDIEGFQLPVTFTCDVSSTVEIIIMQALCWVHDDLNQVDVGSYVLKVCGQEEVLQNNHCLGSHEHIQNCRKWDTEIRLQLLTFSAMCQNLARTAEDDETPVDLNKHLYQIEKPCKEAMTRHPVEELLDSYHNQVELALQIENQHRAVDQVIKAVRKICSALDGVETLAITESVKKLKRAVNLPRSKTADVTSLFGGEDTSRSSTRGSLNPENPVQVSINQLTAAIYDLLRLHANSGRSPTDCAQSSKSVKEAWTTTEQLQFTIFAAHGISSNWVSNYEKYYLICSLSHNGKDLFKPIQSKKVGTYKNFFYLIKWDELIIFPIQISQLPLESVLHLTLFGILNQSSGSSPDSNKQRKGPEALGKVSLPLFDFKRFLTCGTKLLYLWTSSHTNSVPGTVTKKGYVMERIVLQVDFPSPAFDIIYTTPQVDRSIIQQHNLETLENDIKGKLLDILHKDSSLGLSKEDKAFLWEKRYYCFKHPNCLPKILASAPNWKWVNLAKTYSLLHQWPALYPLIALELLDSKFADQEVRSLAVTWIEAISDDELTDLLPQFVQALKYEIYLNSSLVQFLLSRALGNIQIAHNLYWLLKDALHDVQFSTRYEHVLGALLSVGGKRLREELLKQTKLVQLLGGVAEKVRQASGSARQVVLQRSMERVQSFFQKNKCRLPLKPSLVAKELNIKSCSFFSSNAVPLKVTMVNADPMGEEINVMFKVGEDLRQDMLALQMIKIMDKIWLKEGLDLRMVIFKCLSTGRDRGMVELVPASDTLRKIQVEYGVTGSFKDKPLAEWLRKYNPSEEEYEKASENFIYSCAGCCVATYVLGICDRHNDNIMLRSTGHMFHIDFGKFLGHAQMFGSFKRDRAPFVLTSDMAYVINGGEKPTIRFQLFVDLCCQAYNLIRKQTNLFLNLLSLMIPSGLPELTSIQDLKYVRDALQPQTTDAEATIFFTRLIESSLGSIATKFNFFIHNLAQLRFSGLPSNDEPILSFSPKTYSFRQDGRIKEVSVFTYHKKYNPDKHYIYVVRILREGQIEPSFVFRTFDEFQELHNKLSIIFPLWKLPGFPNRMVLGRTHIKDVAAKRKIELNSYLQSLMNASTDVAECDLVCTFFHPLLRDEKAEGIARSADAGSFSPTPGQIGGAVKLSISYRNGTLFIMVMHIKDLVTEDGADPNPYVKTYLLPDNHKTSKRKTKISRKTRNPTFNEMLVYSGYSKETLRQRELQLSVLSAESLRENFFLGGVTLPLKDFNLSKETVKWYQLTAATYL
T2 sequence (Q8NEB9 whole entry): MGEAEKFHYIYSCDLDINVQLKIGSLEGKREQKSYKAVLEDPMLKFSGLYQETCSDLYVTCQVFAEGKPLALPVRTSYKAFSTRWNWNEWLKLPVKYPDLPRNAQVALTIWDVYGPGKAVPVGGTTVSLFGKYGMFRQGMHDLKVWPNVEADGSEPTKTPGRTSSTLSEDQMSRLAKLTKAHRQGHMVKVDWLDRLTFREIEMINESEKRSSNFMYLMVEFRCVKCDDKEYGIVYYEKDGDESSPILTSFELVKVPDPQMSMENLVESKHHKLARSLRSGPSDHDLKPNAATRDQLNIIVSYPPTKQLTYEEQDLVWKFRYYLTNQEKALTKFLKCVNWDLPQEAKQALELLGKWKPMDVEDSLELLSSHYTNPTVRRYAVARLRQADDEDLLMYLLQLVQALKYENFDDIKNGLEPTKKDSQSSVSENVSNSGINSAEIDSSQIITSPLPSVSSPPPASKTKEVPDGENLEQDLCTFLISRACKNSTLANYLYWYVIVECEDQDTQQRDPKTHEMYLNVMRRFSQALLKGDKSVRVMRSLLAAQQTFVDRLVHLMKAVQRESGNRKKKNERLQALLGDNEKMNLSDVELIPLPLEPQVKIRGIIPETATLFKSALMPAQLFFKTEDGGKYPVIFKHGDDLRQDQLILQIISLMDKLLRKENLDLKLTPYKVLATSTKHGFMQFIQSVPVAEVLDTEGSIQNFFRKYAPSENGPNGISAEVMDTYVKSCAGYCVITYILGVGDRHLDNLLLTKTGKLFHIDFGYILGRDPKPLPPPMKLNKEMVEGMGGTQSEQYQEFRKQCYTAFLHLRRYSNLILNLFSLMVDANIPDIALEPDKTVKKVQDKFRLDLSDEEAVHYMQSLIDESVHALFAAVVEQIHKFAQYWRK
T1 sequence (O00750 whole entry, the tested form may be a part): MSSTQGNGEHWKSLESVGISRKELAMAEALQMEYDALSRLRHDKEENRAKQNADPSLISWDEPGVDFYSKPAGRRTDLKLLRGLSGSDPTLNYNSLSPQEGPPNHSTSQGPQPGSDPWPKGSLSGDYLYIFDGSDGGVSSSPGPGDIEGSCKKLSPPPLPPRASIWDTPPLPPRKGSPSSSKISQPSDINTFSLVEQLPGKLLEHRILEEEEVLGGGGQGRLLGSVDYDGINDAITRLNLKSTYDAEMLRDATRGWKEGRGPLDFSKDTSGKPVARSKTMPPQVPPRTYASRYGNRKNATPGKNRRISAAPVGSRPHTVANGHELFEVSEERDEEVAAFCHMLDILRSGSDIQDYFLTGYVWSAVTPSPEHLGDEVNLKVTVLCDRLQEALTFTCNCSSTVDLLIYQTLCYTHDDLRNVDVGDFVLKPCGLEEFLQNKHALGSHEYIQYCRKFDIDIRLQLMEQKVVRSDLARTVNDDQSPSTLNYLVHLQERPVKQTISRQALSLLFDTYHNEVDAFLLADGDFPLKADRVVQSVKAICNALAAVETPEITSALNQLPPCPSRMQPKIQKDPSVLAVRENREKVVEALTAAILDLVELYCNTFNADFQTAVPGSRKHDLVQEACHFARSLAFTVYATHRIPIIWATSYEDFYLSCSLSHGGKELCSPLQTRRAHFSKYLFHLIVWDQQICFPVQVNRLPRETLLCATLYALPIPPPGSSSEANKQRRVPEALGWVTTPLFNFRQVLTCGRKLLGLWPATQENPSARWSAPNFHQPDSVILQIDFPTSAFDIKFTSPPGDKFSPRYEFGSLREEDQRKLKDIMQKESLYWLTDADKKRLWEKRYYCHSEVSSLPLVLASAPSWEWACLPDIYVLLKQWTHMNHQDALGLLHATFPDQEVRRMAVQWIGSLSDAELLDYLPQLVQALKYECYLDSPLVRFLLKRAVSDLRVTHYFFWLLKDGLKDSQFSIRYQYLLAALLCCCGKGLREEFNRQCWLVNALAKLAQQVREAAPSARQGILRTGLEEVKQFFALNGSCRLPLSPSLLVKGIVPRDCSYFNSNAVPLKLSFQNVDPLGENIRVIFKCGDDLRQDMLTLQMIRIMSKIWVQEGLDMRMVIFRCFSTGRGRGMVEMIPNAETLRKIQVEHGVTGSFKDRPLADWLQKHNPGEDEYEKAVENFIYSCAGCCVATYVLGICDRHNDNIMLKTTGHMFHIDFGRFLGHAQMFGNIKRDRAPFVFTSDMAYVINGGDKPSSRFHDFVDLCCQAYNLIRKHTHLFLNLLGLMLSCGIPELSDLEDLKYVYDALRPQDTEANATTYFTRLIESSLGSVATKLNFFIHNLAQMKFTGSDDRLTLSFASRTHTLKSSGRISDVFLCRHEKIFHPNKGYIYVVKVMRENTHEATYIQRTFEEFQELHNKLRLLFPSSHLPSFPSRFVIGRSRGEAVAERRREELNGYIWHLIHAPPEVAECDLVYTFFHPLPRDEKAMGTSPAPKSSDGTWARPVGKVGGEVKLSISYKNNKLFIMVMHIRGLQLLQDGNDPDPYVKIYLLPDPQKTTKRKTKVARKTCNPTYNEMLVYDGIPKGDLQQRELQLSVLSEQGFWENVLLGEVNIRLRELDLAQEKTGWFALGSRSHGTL

For `CC(=O)Nc1nc(C)c(-c2ccc(Cl)c(S(=O)(=O)NCCO)c2)s1`, the IC50 [1] was 14 µM and the IC50 [2] was 0.32 µM.
Work on `COc1ccc2c(c1OC)N=C(NC(=O)c1cccnc1)N1CCN=C21` yielded an IC50 [2] of 0.83 µM.
With `CC(=O)Nc1ccc2nc(-c3cccc(NS(=O)(=O)c4ccccc4)c3)nc(N3CCOCC3)c2c1` the IC50 [3] was > 10 µM and the IC50 [4] was > 100 µM.
With `C[C@@H]1COCCN1c1cc(=O)n2c(n1)N(Cc1cncc(Cl)c1)[C@H](C(F)(F)F)CC2` the IC50 [5] was > 10 µM, the IC50 [6] was > 10 µM and the IC50 [7] was > 10 µM. The IC50 [3] was > 10 µM and the IC50 [4] was > 10 µM.
With `Nc1ncc(-c2ccnc(Nc3ccncc3)n2)c(CC2CC2)n1` the IC50 [4] was > 9.1 µM and the IC50 [8] was 3 µM.
With `CC(=O)Nc1ccc2nc(-c3cccc(NS(=O)(=O)c4ccc5ccccc5c4)c3)nc(N3CCOCC3)c2c1` the IC50 [3] was > 10 µM and the IC50 [4] was > 100 µM.
With `CC(C)(O)CNc1ncc(-c2ccnc(Nc3ccnc(Cl)c3)n2)c(CC2CC2)n1` the IC50 [5] was > 10 µM, the IC50 [6] was > 10 µM and the IC50 [7] was > 10 µM. For the same compound, the IC50 [3] was > 10 µM and the IC50 [4] was > 1 µM.
`O=C1NC(=S)S/C1=C\c1ccc2c(c1)N(Cc1ccc(F)c(Cl)c1)C(=O)CO2` showed an IC50 [9] of 0.14 µM, an IC50 [1] of 0.37 µM and an IC50 [2] of 10 µM. The IC50 [10] was 1.5 µM.
With `Cn1c(=O)n(-c2ccc(C(C)(C)C#N)cc2)c2c3cc(-c4cnc5ccccc5c4)ccc3ncc21` [DACTOLISIB] the IC50 [11] was 0.034 µM, the IC50 [12] was 0.044 µM and the IC50 [13] was 0.45 µM.
For `CS(=O)(=O)N1CCN(Cc2cc3nc(-c4cccc5[nH]ncc45)nc(N4CCOCC4)c3s2)CC1` [PICTILISIB], the IC50 [5] was > 10 µM.
With `COc1ccc(Cl)c(Nc2nc3ccccc3nc2NS(=O)(=O)c2cccc(NC(=O)C(C)(C)N)c2)c1` [PILARALISIB] the IC50 [14] was 7 µM and the IC50 [15] was 4.8 µM.
For `FC(F)c1nc2ccccc2n1-c1nc(N2CCOCC2)nc(N2CCOCC2)n1` [ZSTK-474], the IC50 [13] was > 100 µM.
